Assay results reported in US20250248936A1 (priority 2022, published 2025).
“And” between values parts separate entries of the source, which are not always exact repeats. Equal values may be shown once.

Tests used:
Type in all cases: in vivo, female turkeys
H. meleagridis [1] = assay: Controlling Histomoniasis in turkeys (QSC and QHS); details: MED 30 mg/kg bird/day; QHS 1500 ppm; QSC 750 ppm
Description: A total of 160 3-week-old female turkeys were randomly grouped into 10 pens. The groups were: control (−) CON, control (+) POS, MED (metronidazole), and two different treatments, (QSC and QHS's active content under treatment) is set). Control group (−) was not challenged or treated with any product, control (+) was only inoculated with a H. meleagridis suspension, and the MED group was inoculated with the same dose and treated with metronidazole, 30 mg/kg bird/day. […] Table 22 summarizes bird distribution according to treatments, as well as the appropriate product dosage.
(§1) The treatments were started as of 3 weeks of age. The H. meleagridis challenge suspension contained 100000 cells/mL, approximately, and was inoculated as of 4 weeks of age, cloacal route. The female turkey mortality rate was recorded throughout the trial, and lesions were measured by using a previously standardized lesion scoring at 8 weeks of age.

H. meleagridis [2] = assay: Controlling Histomoniasis in turkeys (BQ batches 3250 ppm); details: MED 30 mg/kg bird/day; BQ-1, BQ-2, BQ-3 3250 ppm
Description: A total of 200 3-week-old young female turkeys were randomly grouped in 10 pens. The groups were: control (−) CON, control (+) POS, MED (metronidazole), 3 groups treated with BQ. BQ is a quillay wood-based additive where three different batches were evaluated with (2.5-5.5%) saponins.
as §1, with “100000 cell/ml,” for “100000 cells/mL,”, “inoculated at” for “inoculated as of”, “age, via” for “age,”

H. meleagridis [3] = assay: Controlling Histomoniasis in turkeys (QSC HD 1500 ppm); details: MED 30 mg/kg bird/day
Description: A total of 160 3-week-old female turkeys were randomly grouped into 10 pens. The groups were: control (−) CON, control (+) POS, metronidazole (MED), two groups treated with QSC at 1500 ppm (HD greater dose than in the previous trial). The CON group was not challenged or treated with any product; POS control was only inoculated with a H. meleagridis suspension, and the MED group was inoculated with the same dose and treated with metronidazole, 30 mg/kg bird/day. […] Table 1208 summarizes bird distribution according to treatments, as well as the appropriate product dosage.
The treatments were started as of 3 weeks of age. The H. meleagridis challenge suspension was 100000 cell/mL, approximately, and was inoculated at 4 weeks of age, via cloacal route. Female turkey mortality rate was recorded throughout the trial, and lesions were measured by using a previously standardized lesion scoring at 8 weeks of age.

H. meleagridis [4] = assay: Controlling Histomoniasis in turkeys (QSC, QS15 750 ppm); details: MED 30 mg/kg bird/day, QSC 750 ppm
Description: A total of 200 3-week-old female turkeys were randomly grouped into 9 pens. The groups were: control (−) (CON), control (+) (POS), metronidazole (MED), two 750 PPM QSC-treated groups, and two groups treated with 750 PPM QS15-treated groups. The CON group was not challenged or treated with any product, POS was only inoculated a H. meleagridis suspension, and the MED group was inoculated with the same dose and treated with 30 mg/kg metronidazole per bird/day. The CON group was comprised of 16 young female turkeys, while the remainder comprised 23 each. Table 17 summarizes the bird distribution according to treatment, as well as the appropriate product dosage.
The treatments were started at 3 weeks of age. The H. meleagridis challenge suspension had approximately 100000 cells/mL and was inoculated at 4 weeks of […] age. Weight was measured at 3, 6 and 8 weeks of age. Feed intake was estimated at 6 and 8 weeks of age. The young female turkey mortality rate was recorded throughout the trial, and lesions were measured by using a previously standardized lesion scoring at 8 weeks of age.

Cc1ncc([N+](=O)[O-])n1CCO [MED, metronidazole]
Cecum lesion score (H. meleagridis [1]): 1.5c
Liver lesion score (H. meleagridis [1]): 0.3a
Mortality (%) (H. meleagridis [1]): 25% and 25.00ab %
Cecum lesion score (H. meleagridis [2]): 0.85a
Liver lesion score (H. meleagridis [2]): 0.5ab
Mortality (%) (H. meleagridis [2]): 10% and 10.00ab %
Cecum lesion score (H. meleagridis [3]): 1.3b
Liver lesion score (H. meleagridis [3]): 0.28ab
Mortality (%) (H. meleagridis [3]): 10% and 10a %
Cecum lesion score (H. meleagridis [4]): 0.2a
Liver lesion score (H. meleagridis [4]): 0.0a
Mortality (%) (H. meleagridis [4]): 2% and 2a %
